From US8716263B2, “Synthesis of purine nucleosides” (Gilead Pharmasset LLC, priority 2008, dated 2014) come the findings set out here.

Read-outs that look alike come from different tables or passages of the source.

The subject of the experiment is HCV replicon RNA-containing Huh7 cells (clone A cells). Nature of the experiment: HCV replicon assay. In kind it is cell-based. The conditions noted are these: read-out: CloneA EC90. As for the experimental part: HCV replicon assay. HCV replicon RNA-containing Huh7 cells (clone A cells; Apath, LLC, St. Louis, Mo.) were kept at exponential growth in Dulbecco's modified Eagle's medium (high glucose) containing 10% fetal bovine serum, 4 mM L-glutamine and 1 mM sodium pyruvate, 1×nonessential amino acids, and G418 (1,000 μg/m1). Antiviral assays were performed in the same medium without G418. Cells were seeded in a 96-well plate at 1,500 cells per well, and test compounds were added immediately after seeding. Incubation time 4 days. At the end of the incubation step, total cellular RNA was isolated (RNeasy 96 kit; Qiagen). Replicon RNA and an internal control (TaqMan rRNA control reagents; Applied Biosystems) were amplified in a single-step multiplex RT-PCR protocol as recommended by the manufacturer. The HCV primers and probe were designed with Primer Express software (Applied Biosystems) and covered highly conserved 5′-untranslated region (UTR) sequences (sense, 5′-AGCCATGGCGTTAGTA(T)GAGTGT-3′ (SEQ ID NO: 1), and antisense, 5′-TTCCGCAGACCACTATGG-3′ (SEQ ID NO: 2); probe, 5′-FAM-[…]-TAMRA-3′ SEQ ID NO: 3)).
To express the antiviral effectiveness of a compound, the threshold RT-PCR cycle of the test compound was subtracted from the average threshold RT-PCR cycle of the no-drug control (ΔCtHCV). A ΔCt of 3.3 equals a 1-log 10 reduction (equal to the 90% effective concentration [EC90]) in replicon RNA levels. The cytotoxicity of the test compound could also be expressed by calculating the ΔCtrRNA values. The ΔΔCt specificity parameter could then be introduced (ΔCtHCV−ΔCtrRNA) in which the levels of HCV RNA are normalized for the rRNA levels and calibrated against the no-drug control.
For orientation: In antiviral work, replicon cells carry a viral genome segment that copies itself.

[1] abbreviates: clone A Huh7 replicon cells, incubation time 4 days, replicon RNA by RT-PCR, ΔCt of 3.3 = 1-log 10 reduction = EC90.

By EC90 is commonly meant the point of the concentration-response curve where the effect stands at 90%. For `COC(=O)[C@H](C)NP(=O)(OC[C@H]1O[C@@H](n2cnc3c(N4CCC4)nc(N)nc32)[C@](C)(F)[C@@H]1O)Oc1ccccc1` (stereo partly drawn) [Compound 12], the concentration for an effect of 90% (EC90) under setting [1] amounted to 70 nM.
As to `COc1nc(N)nc2c1ncn2[C@@H]1O[C@@H]2CO[P@](=O)(OC3CCC3)O[C@H]2[C@@]1(C)F` [Compound 23, 6-Methoxy-9-((2R,4aR,6R,7R,7aR)-7-fluoro-2-cyclobutoxy-7-methyl-2-oxo-tetrahydro-2λ^5-furo[3,2-d][1,3,2]dioxaphosphinin-6-yl)-9H-purin-2-ylamine], under “Hepatitis C virus, Huh-7, 96 h, clone A Huh7 replicon cells, incubation time 4 days, replicon RNA by RT-PCR, ΔCt of 3.3 = 1-log 10 reduction = EC90”, the concentration for an effect of 90% (EC90) was 130 nM.
Consider `COc1nc(N)nc2c1ncn2[C@@H]1O[C@@H]2CO[P@](=O)(OC3CCCC3)O[C@H]2[C@@]1(C)F` [Compound 24, 6-Methoxy-9-((2R,4aR,6R,7R,7aR)-7-fluoro-2-cyclopentoxy-7-methyl-2-oxo-tetrahydro-2μ^5-furo[3,2-d][1,3,2]dioxaphosphinin-6-yl)-9H-purin-2-ylamine], for which the concentration for an effect of 90% (EC90) under setting [1] came out at 37 nM.
Consider `COP1(=O)OC[C@H]2O[C@@H](n3cnc4c(N5CCC5)nc(N)nc43)[C@](C)(F)[C@@H]2O1` (stereo partly drawn) [Compound 15, 6-Azetidin-1-yl-9-((4aR,6R,7R,7aR)-7-fluoro-2-methoxy-7-methyl-2-oxo-tetrahydrofuro[3,2-d][1,3,2]dioxaphosphinin-6-yl)-9H-purin-2-ylamine], for which the EC90 (Hepatitis C virus, Huh-7, 96 h) was 710 nM.
In the case of `COc1nc(N)nc2c1ncn2[C@@H]1O[C@H](COP(=O)(N[C@@H](C)C(=O)OC(C)C)Oc2ccccc2)[C@@H](O)[C@@]1(C)F` (stereo partly drawn) [Compound 11, (2S)-isopropyl 2-((((2R,3R,4R,5R)-5-(2-amino-6-methoxy-9H-purin-9-yl)-4-fluoro-3-hydroxy-4-methyltetrahydrofuran-2-yl)methoxy) (phenoxy)phosphorylamino)propanoate], the EC90 (Hepatitis C virus, Huh-7, 96 h) came to 20 nM.
Regarding `C[C@H](NP(=O)(OC[C@H]1O[C@@H](n2cnc3c(O)nc(N)nc32)[C@](C)(F)[C@@H]1O)Oc1ccccc1)C(=O)OC1CCCC1` (stereo partly drawn) [Compound 14, (2S)-cyclopentyl 2-((((2R,3R,4R,5R)-5-(2-amino-6-hydroxy-9H-purin-9-yl)-4-fluoro-3-hydroxy-4-methyltetrahydrofuran-2-yl)methoxy)(phenoxy)phosphorylamino)propanoate], the EC90 (Hepatitis C virus, Huh-7, 96 h) turned out to be 130 nM.
